The target of this assay is T1, IKKε (Homo sapiens, UniProt Q14164).
T1 sequence (Q14164 1-716): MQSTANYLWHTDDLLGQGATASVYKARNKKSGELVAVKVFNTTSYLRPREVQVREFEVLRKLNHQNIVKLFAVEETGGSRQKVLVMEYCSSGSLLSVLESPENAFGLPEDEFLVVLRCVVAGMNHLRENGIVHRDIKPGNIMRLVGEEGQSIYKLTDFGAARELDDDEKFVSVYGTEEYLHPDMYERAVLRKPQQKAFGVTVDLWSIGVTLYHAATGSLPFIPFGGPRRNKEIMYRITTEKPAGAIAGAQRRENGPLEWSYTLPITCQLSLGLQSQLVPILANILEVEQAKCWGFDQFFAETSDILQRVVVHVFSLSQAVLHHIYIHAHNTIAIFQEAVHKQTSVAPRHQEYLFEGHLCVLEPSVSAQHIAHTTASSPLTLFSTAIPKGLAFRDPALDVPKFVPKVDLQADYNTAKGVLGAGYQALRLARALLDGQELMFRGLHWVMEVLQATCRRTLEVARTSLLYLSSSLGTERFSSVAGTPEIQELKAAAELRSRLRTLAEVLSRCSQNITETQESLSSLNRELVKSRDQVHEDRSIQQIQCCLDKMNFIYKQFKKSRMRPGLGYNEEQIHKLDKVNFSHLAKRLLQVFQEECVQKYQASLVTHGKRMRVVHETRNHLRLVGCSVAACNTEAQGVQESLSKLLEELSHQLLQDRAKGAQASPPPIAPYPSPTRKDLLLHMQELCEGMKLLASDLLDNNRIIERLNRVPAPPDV
Type of assay: biochemical.

A word on the IC50: it is the midpoint of a concentration-inhibition curve. Read a low IC50 as higher potency. For `N#CCNC(=O)c1ccc(-c2ccnc(Nc3ccc(N4CCOCC4)cc3)n2)cc1` [CYT387], the IC50 amounted to 42 nM.
